According to patent publication US9168288B2, “Methods for treating disorders of the gastrointestinal tract using a GLP-1 agonist” (Mount Sinai Hospital, priority 2010, dated 2015):

Assays:
Type in all cases: in vivo
[1] = system: WT female mice on the C57B1/6 genetic background; assay: Example 3: efficacy of GLP-1 receptor agonists administered once per day (body weight, blood glucose, pancreas, small bowel, colon)
Procedure: All mice used in the study were 10-week old WT female mice on the C57B1/6 genetic background. The mice were maintained on regular drinking water and a standard rodent chow diet.
All injections were given once per day, and were administered ip using a 31 g insulin syringe with an 8 mm long needle in a final volume that ranged between 84-125 μl. The body weight and food intake were determined daily. Non-fasting blood glucose levels were measured using a hand-held glucometer on day 1 (prior to the first injection), day 8, and day 15 (day of sacrifice). […] The entire pancreas was removed and weighed. The entire small bowel was removed and then suspended vertically with a 1 g weight attached to the distal portion of the small bowel (to provide uniform tension). Small bowel length was determined using a vertical ruler and then flushed with ice-cold PBS, blotted dry and weighed. The entire colon was removed and colon length was determined by measuring with a ruler placed on a horizontal surface. The colon was then flushed with ice-cold PBS, blotted dry and weighed. All statistical analyses were done by one-way ANOVA with Bonferroni's Multiple Comparison Post-Test using GraphPad Prism software (version 4), n=4 mice/group.

[2] = system: wild-type female C57B1/6 mice on regular drinking water or 3% DSS; assay: Example 5: low dose Liraglutide (25 or 50 μg/kg BID s.c., one week), small intestine size, body weight, blood glucose; conditions: C57B1/6, regular water or 3% DSS
Procedure: All mice were 10-week old wild-type female mice on the C57B1/6 genetic background. Mice were maintained on a standard rodent chow diet and either regular drinking water or water supplemented with 3% DSS for a total of one week. Mice were given subcutaneous injections of either phosphate buffered saline (PBS), 25 μg/kg of Liraglutide (LG) BID, or 50 μg/kg of LG BID for one week. PBS or LG injections commenced at the same time that mice were started on normal drinking water or water supplemented with 3% DSS. Injections were administered using a 31 g insulin syringe with an 8 mm long needle and in a final volume that ranged between 85-110 μl. Body weights, food intake, and water intake were determined daily. […] Small intestines were removed and then suspended vertically with a 1 g weight attached to the distal portion of the small intestine (to provide uniform tension). Small intestine length was determined using a vertical ruler. Luminal contents were removed from the small bowel by flushing with ice-cold PBS using a 60 cc syringe attached to a p200 pipette tip. Mesenteric fat and pancreatic tissue were dissected away from the small intestine. The small intestine was blotted to remove excess PBS and then weighed. Statistical analyses were done by one-way ANOVA with Bonferroni's Multiple Comparison Post-Test using GraphPad Prism software (version 4).
All mice were 10-week old female wild-type mice on the C57B1/6 genetic background. Mice were maintained on a standard rodent chow diet and either regular drinking water or water supplemented with 3% DSS for a total of one week. Mice were given s.c. injections of either phosphate buffered saline (PBS), 25 μg/kg of Liraglutide (LG) BID, or 50 μg/kg of LG BID for one week. PBS or LG injections commenced at the same time that mice were started on normal drinking water or water supplemented with 3% DSS. Injections were administered using a 31 g insulin syringe with an 8 mm long needle and in a final volume that ranged between 85-110 μl. Body weights, food intake, and water intake were determined daily. Blood glucose levels were measured on the first day of the study and just prior to sacrifice. Statistical analyses were done by one-way ANOVA with Bonferroni's Multiple Comparison Post-Test using GraphPad Prism software (version 4). n=5 mice/group.

[3] = system: female wild-type mice on the Balb/c genetic background; assay: Example 5: low dose Liraglutide (30 or 50 μg/kg BID s.c., one week), large intestine size and body weight, Balb/c mice; conditions: Liraglutide 30 μg/kg BID s.c. 7 days vs PBS
Source text: FIGS. 18A-18D illustrate that doses of Liraglutide lower than those that have shown glucose lowering or cardioprotective effects in rodents [Rolin B, et al, 2002; Noyan-Ashraf M H, et al, 2009; Porter D W et al, 2010; Irwin N et al, 2010; and Gault V A et al, 2011] are still able to increase large intestine size (large intestine weight and length) in wild-type mice compared to PBS-treated mice. FIGS. 18A-18D also illustrate that Liraglutide treatment can increase large intestine size (large intestine length and weight) in wild-type mice on the Balb/c genetic background compared to control-treated mice. All mice were 9-week old female wild-type mice on the Balb/c genetic background. All mice were maintained on a standard rodent chow diet and normal drinking water. Mice were given s.c. injections of either phosphate buffered saline (PBS), 30 μg/kg of Liraglutide (LG) BID, or 50 μg/kg of LG BID for one week. Injections were administered using a 31 g insulin syringe with an 8 mm long needle and in a final volume that ranged between 60-120 μl. Body weights and food intake were determined daily. […] The large intestine was removed and its length was determined by measuring with a ruler placed on a horizontal surface. Luminal contents were removed from the large intestine by flushing with ice-cold PBS using a 60 cc syringe attached to a p200 pipette tip. Mesenteric fat was dissected away from the large intestine. The large intestine was blotted to remove excess PBS and then weighed. Statistical analyses were done by one-way ANOVA with Bonferroni's Multiple Comparison Post-Test using GraphPad Prism software (version 4).
All mice were 9-week old female wild-type mice on the Balb/c genetic background. All mice were maintained on a standard rodent chow diet and normal drinking water. Mice were given s.c. injections of either phosphate buffered saline (PBS), 30 μg/kg of Liraglutide (LG) BID, or 50 μg/kg of LG BID for one week. […] Body weights and food intake were determined daily. […]

[4] = Liraglutide once a day ip for two weeks (LG qd 2, 75 μg/kg) vs PBS
[5] = Liraglutide 25 μg/kg BID s.c. 7 days vs PBS, listed as 3% DSS/Liguratide
[6] = Liraglutide 25 μg/kg BID s.c. 7 days vs PBS, listed as liraglutide
[7] = Liraglutide 50 μg/kg BID s.c. 7 days vs PBS
[8] = Liraglutide 50 μg/kg BID s.c. 7 days vs PBS, listed as 3% DSS/Liguratide
[9] = Liraglutide 50 μg/kg BID s.c. 7 days vs PBS, listed as liraglutide

CCCCCCCCCCCCCCCC(=O)N[C@@H](CCC(=O)NCCCC[C@H](NC(=O)[C@H](C)NC(=O)[C@H](C)NC(=O)[C@H](CCC(N)=O)NC(=O)CNC(=O)[C@H](CCC(=O)O)NC(=O)[C@H](CC(C)C)NC(=O)[C@H](Cc1ccc(O)cc1)NC(=O)[C@H](CO)NC(=O)[C@H](CO)NC(=O)[C@@H](NC(=O)[C@H](CC(=O)O)NC(=O)[C@H](CO)NC(=O)[C@@H](NC(=O)[C@H](Cc1ccccc1)NC(=O)[C@@H](NC(=O)CNC(=O)[C@H](CCC(=O)O)NC(=O)[C@H](C)NC(=O)[C@@H](N)Cc1cnc[nH]1)[C@@H](C)O)[C@@H](C)O)C(C)C)C(=O)N[C@@H](CCC(=O)O)C(=O)N[C@@H](Cc1ccccc1)C(=O)N[C@H](C(=O)N[C@@H](C)C(=O)N[C@@H](Cc1c[nH]c2ccccc12)C(=O)N[C@@H](CC(C)C)C(=O)N[C@H](C(=O)N[C@@H](CCCNC(=N)N)C(=O)NCC(=O)N[C@@H](CCCNC(=N)N)C(=O)NCC(=O)O)C(C)C)[C@@H](C)CC)C(=O)O [Liraglutide]
non-fasting blood glucose levels ([1]; Liraglutide 75 μg/kg ip once a day for one week vs PBS): does not alter | non-fasting blood glucose levels ([1]; Liraglutide 75 μg/kg ip once a day for two weeks vs PBS): significantly increased | body weight ([1]; Liraglutide 75 μg/kg ip once per day for 7 days (LG qd 1) vs PBS): do not have a significant effect | body weight ([1]; Liraglutide 75 μg/kg ip once per day for 14 days (LG qd 2) vs PBS): do not have a significant effect | pancreas weight per gram of body weight [1, 4]: significantly increases | total pancreas weight [1, 4]: significantly increases | increase blood glucose (blood glucose level) ([2]; Liraglutide 25 μg/kg BID s.c. 7 days vs PBS): no difference | decrease body weight (final body weight) [2, 5]: No | increase blood glucose (blood glucose level) [2, 5]: No | decrease body weight (final body weight) [2, 6]: no difference | increase blood glucose (blood glucose level) [2, 6]: no difference | decrease body weight (final body weight) [2, 7]: no difference | increase blood glucose (blood glucose level) [2, 7]: no difference | decrease body weight (final body weight) [2, 8]: No | increase blood glucose (blood glucose level) [2, 8]: No | decrease body weight (final body weight) [2, 9]: no difference | increase blood glucose (blood glucose level) [2, 9]: no difference | decrease body weight (final body weight) [3]: no difference | decrease body weight (final body weight) ([3]; listed as 3% DSS/Liguratide): No | decrease body weight (final body weight) ([3]; listed as liraglutide): no difference
